{"source": "ChEMBL document CHEMBL1201862", "about": "“PubChem BioAssay data set” (2004)", "experiment_in_all_cases": "DTP human tumour cell line panel, 48 h", "key": {"A498": {"system": "A498"}, "HCT-116": {"system": "HCT-116"}, "HOP-62": {"system": "HOP-62"}, "HOP-92": {"system": "HOP-92"}, "MCF7": {"system": "MCF7"}, "NCI/ADR-RES": {"system": "NCI/ADR-RES"}, "SF-268": {"system": "SF-268"}, "SF-295": {"system": "SF-295"}, "SN12C": {"system": "SN12C"}, "SW-620": {"system": "SW-620"}, "T47D": {"system": "T47D"}, "UACC-257": {"system": "UACC-257"}, "ACHN": {"system": "ACHN"}, "DMS-114": {"system": "DMS-114"}, "HOP-18": {"system": "HOP-18"}, "LXFL 529": {"system": "LXFL 529"}, "SNB-78": {"system": "SNB-78"}, "DLD-1": {"system": "DLD-1"}, "NCI-H522": {"system": "NCI-H522"}, "XF498": {"system": "XF498"}}, "note": "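All cell lines were grown in 96-well plates and treated with compound for 48 hours. At the GI50, growth is halved.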 Activity calls are given as the source filed them. Cut-off read from the data, not from the text of the source: active = GI50 up to about 1.1 µM and inactive = higher.", "data": [{"smiles": "O=c1c(C(c2ccc(C(c3c(O)oc4cc(O)ccc4c3=O)c3c(O)oc4cc(O)ccc4c3=O)cc2)c2c(O)oc3cc(O)ccc3c2=O)c(O)oc2cc(O)ccc12", "values": [{"measurement": "GI50", "setting": "A498", "value": "> 100 µM (inactive)"}, {"measurement": "GI50", "setting": "HCT-116", "value": "> 100 µM (inactive)"}, {"measurement": "GI50", "setting": "HOP-62", "value": "> 100 µM (inactive)"}, {"measurement": "GI50", "setting": "HOP-92", "value": "> 100 µM (inactive)"}, {"measurement": "GI50", "setting": "MCF7", "value": "> 100 µM (inactive)"}, {"measurement": "GI50", "setting": "NCI/ADR-RES", "value": "> 100 µM (inactive)"}, {"measurement": "GI50", "setting": "SF-268", "value": "> 100 µM (inactive)"}, {"measurement": "GI50", "setting": "SF-295", "value": "> 100 µM (inactive)"}, {"measurement": "GI50", "setting": "SN12C", "value": "93.1 µM (inactive)"}, {"measurement": "GI50", "setting": "SW-620", "value": "> 100 µM (inactive)"}, {"measurement": "GI50", "setting": "T47D", "value": "> 100 µM (inactive)"}, {"measurement": "GI50", "setting": "UACC-257", "value": "> 100 µM (inactive)"}]}, {"smiles": "Nc1cc(-c2ccccc2)nn1-c1nsc2ccccc12", "values": [{"measurement": "GI50", "setting": "ACHN", "value": "> 100 µM (inactive)"}, {"measurement": "GI50", "setting": "DMS-114", "value": "> 100 µM (inactive)"}, {"measurement": "GI50", "setting": "HCT-116", "value": "73.3 µM (inactive)"}, {"measurement": "GI50", "setting": "HOP-18", "value": "0.573 µM (active)"}, {"measurement": "GI50", "setting": "HOP-62", "value": "36.3 µM (inactive)"}, {"measurement": "GI50", "setting": "HOP-92", "value": "63.4 µM (inactive)"}, {"measurement": "GI50", "setting": "LXFL 529", "value": "> 100 µM (inactive)"}, {"measurement": "GI50", "setting": "SF-268", "value": "58.9 µM (inactive)"}, {"measurement": "GI50", "setting": "SN12C", "value": "99.8 µM (inactive)"}, {"measurement": "GI50", "setting": "SNB-78", "value": "68.1 µM (inactive)"}, {"measurement": "GI50", "setting": "SW-620", "value": "> 100 µM (inactive)"}, {"measurement": "GI50", "setting": "UACC-257", "value": "> 100 µM (inactive)"}]}, {"smiles": "CCC(=C(C#N)C#N)c1cc(OC)c(OC)c(OC)c1", "values": [{"measurement": "GI50", "setting": "ACHN", "value": "> 100 µM (inactive)"}, {"measurement": "GI50", "setting": "DLD-1", "value": "> 100 µM (inactive)"}, {"measurement": "GI50", "setting": "DMS-114", "value": "> 100 µM (inactive)"}, {"measurement": "GI50", "setting": "HCT-116", "value": "> 100 µM (inactive)"}, {"measurement": "GI50", "setting": "HOP-18", "value": "> 100 µM (inactive)"}, {"measurement": "GI50", "setting": "HOP-62", "value": "> 100 µM (inactive)"}, {"measurement": "GI50", "setting": "HOP-92", "value": "95.1 µM (inactive)"}, {"measurement": "GI50", "setting": "LXFL 529", "value": "> 100 µM (inactive)"}, {"measurement": "GI50", "setting": "NCI-H522", "value": "> 100 µM (inactive)"}, {"measurement": "GI50", "setting": "SF-268", "value": "> 100 µM (inactive)"}, {"measurement": "GI50", "setting": "SN12C", "value": "> 100 µM (inactive)"}, {"measurement": "GI50", "setting": "SW-620", "value": "> 100 µM (inactive)"}, {"measurement": "GI50", "setting": "XF498", "value": "> 100 µM (inactive)"}]}, {"smiles": "O=C(O)CCC(NC(=O)c1ccc(Nc2nc3cc(C(F)(F)F)ccc3nc2-c2ccccc2)cc1)C(=O)O", "note": "(stereo unspecified)", "values": [{"measurement": "GI50", "setting": "A498", "value": "> 100 µM (inactive)"}, {"measurement": "GI50", "setting": "DLD-1", "value": "> 76 µM (inactive)"}, {"measurement": "GI50", "setting": "DMS-114", "value": "> 100 µM (inactive)"}, {"measurement": "GI50", "setting": "HCT-116", "value": "71 µM (inactive)"}, {"measurement": "GI50", "setting": "HOP-18", "value": "> 100 µM (inactive)"}, {"measurement": "GI50", "setting": "HOP-62", "value": "> 74.6 µM (inactive)"}, {"measurement": "GI50", "setting": "HOP-92", "value": "> 52.6 µM (inactive)"}, {"measurement": "GI50", "setting": "MCF7", "value": "64.9 µM (inactive)"}, {"measurement": "GI50", "setting": "NCI-H522", "value": "35.6 µM (inactive)"}, {"measurement": "GI50", "setting": "NCI/ADR-RES", "value": "62.1 µM (inactive)"}, {"measurement": "GI50", "setting": "SF-268", "value": "> 100 µM (inactive)"}, {"measurement": "GI50", "setting": "SF-295", "value": "20.4 µM (inactive)"}, {"measurement": "GI50", "setting": "SN12C", "value": "> 100 µM (inactive)"}, {"measurement": "GI50", "setting": "SNB-78", "value": "> 95.9 µM (inactive)"}, {"measurement": "GI50", "setting": "SW-620", "value": "68.1 µM (inactive)"}, {"measurement": "GI50", "setting": "UACC-257", "value": "> 100 µM (inactive)"}, {"measurement": "GI50", "setting": "XF498", "value": "> 78.2 µM (inactive)"}]}, {"smiles": "CNC(=O)CN1CC(=O)N(C)C(=O)C1", "values": [{"measurement": "GI50", "setting": "DLD-1", "value": "> 100 µM (inactive)"}, {"measurement": "GI50", "setting": "HOP-62", "value": "> 100 µM (inactive)"}, {"measurement": "GI50", "setting": "HOP-92", "value": "> 100 µM (inactive)"}, {"measurement": "GI50", "setting": "LXFL 529", "value": "> 100 µM (inactive)"}, {"measurement": "GI50", "setting": "NCI-H522", "value": "> 100 µM (inactive)"}, {"measurement": "GI50", "setting": "SNB-78", "value": "> 100 µM (inactive)"}, {"measurement": "GI50", "setting": "SW-620", "value": "> 100 µM (inactive)"}, {"measurement": "GI50", "setting": "XF498", "value": "> 100 µM (inactive)"}]}, {"smiles": "COc1cc2c(cc1OC)C(C(c1ccccc1)c1ccccc1)N(C)CC2", "note": "(stereo unspecified)", "values": [{"measurement": "GI50", "setting": "A498", "value": "> 100 µM (inactive)"}, {"measurement": "GI50", "setting": "DLD-1", "value": "> 78.9 µM (inactive)"}, {"measurement": "GI50", "setting": "DMS-114", "value": "41.8 µM (inactive)"}, {"measurement": "GI50", "setting": "HCT-116", "value": "> 58.6 µM (inactive)"}, {"measurement": "GI50", "setting": "HOP-18", "value": "> 100 µM (inactive)"}, {"measurement": "GI50", "setting": "HOP-62", "value": "> 100 µM (inactive)"}, {"measurement": "GI50", "setting": "HOP-92", "value": "29.2 µM (inactive)"}, {"measurement": "GI50", "setting": "MCF7", "value": "52.4 µM (inactive)"}, {"measurement": "GI50", "setting": "NCI-H522", "value": "74.1 µM (inactive)"}, {"measurement": "GI50", "setting": "NCI/ADR-RES", "value": "68.9 µM (inactive)"}, {"measurement": "GI50", "setting": "SF-268", "value": "> 100 µM (inactive)"}, {"measurement": "GI50", "setting": "SF-295", "value": "> 75.9 µM (inactive)"}, {"measurement": "GI50", "setting": "SN12C", "value": "> 100 µM (inactive)"}, {"measurement": "GI50", "setting": "SNB-78", "value": "> 100 µM (inactive)"}, {"measurement": "GI50", "setting": "SW-620", "value": "> 100 µM (inactive)"}, {"measurement": "GI50", "setting": "UACC-257", "value": "32.9 µM (inactive)"}, {"measurement": "GI50", "setting": "XF498", "value": "53 µM (inactive)"}]}, {"smiles": "CC1(C)Cc2c(C#N)c(N)c3c(c2CO1)C(=O)OC3=O", "values": [{"measurement": "GI50", "setting": "ACHN", "value": "> 100 µM (inactive)"}, {"measurement": "GI50", "setting": "DMS-114", "value": "> 100 µM (inactive)"}, {"measurement": "GI50", "setting": "HCT-116", "value": "> 100 µM (inactive)"}, {"measurement": "GI50", "setting": "HOP-18", "value": "> 100 µM (inactive)"}, {"measurement": "GI50", "setting": "HOP-62", "value": "> 100 µM (inactive)"}, {"measurement": "GI50", "setting": "LXFL 529", "value": "> 100 µM (inactive)"}, {"measurement": "GI50", "setting": "NCI-H522", "value": "> 100 µM (inactive)"}, {"measurement": "GI50", "setting": "SF-268", "value": "> 100 µM (inactive)"}, {"measurement": "GI50", "setting": "SN12C", "value": "> 100 µM (inactive)"}, {"measurement": "GI50", "setting": "SW-620", "value": "> 100 µM (inactive)"}, {"measurement": "GI50", "setting": "XF498", "value": "> 100 µM (inactive)"}]}, {"smiles": "O=c1[nH]c(=O)n(CCOCP(=O)(O)O)nc1Br", "values": [{"measurement": "GI50", "setting": "A498", "value": "> 100 µM (inactive)"}, {"measurement": "GI50", "setting": "ACHN", "value": "> 100 µM (inactive)"}, {"measurement": "GI50", "setting": "HOP-62", "value": "> 100 µM (inactive)"}, {"measurement": "GI50", "setting": "HOP-92", "value": "> 100 µM (inactive)"}, {"measurement": "GI50", "setting": "MCF7", "value": "> 100 µM (inactive)"}, {"measurement": "GI50", "setting": "NCI-H522", "value": "> 100 µM (inactive)"}, {"measurement": "GI50", "setting": "NCI/ADR-RES", "value": "> 100 µM (inactive)"}, {"measurement": "GI50", "setting": "SF-268", "value": "> 100 µM (inactive)"}, {"measurement": "GI50", "setting": "SN12C", "value": "> 100 µM (inactive)"}, {"measurement": "GI50", "setting": "SW-620", "value": "> 100 µM (inactive)"}, {"measurement": "GI50", "setting": "T47D", "value": "> 100 µM (inactive)"}]}]}
